Test results as given in patent publication US20190151283A1, “NON-STEROIDAL SELECTIVE GLUCOCORTICOID RECEPTOR AGONISTIC MODULATORS (SEGRAMs) AND USES THEREOF” (ASSOCIATION POUR LA RECHERCHE À L'IGBMC (ARI), priority 2017, published 2019).

Columns and labels:
Balb/C mice [1] = assay: Ovalbumin (OVA)-induced allergic conjunctivitis; format: in vivo, mouse; conditions: 0.1% instillation D22 to D24, 20 minutes after the last OVA challenge
Procedure: To investigate the anti-inflammatory effect of CpdX or CpdX-D3 on an allergic conjunctivitis, Balb/C mice were intraperitoneally sensitized with 50 μg OVA with alum on both days D1 and D8, and then challenged from D15 to D21 with 250 μg OVA in 5 μL of sterilized vehicle (0.9% NaCl), which were directly instilled onto the conjunctival sac. From D22 to D24, mice were divided into several groups, and received instillations with either OVA alone, OVA together with 0.1% of either Dex, CpdX, CpdX(eA), CpdX(eB), CpdX-D3, CpdX-D3(eA) or CpdX-D3(eB).
The clinical appearance of mouse eyes was evaluated 20 minutes after the last instillation on D24. Clinical signs (conjunctival hyperemia, lid edema and tearing) were scored to evaluate the occurrence and severity of conjunctivitis as described by Gimenes et al. (2015. Experimental Eye Research 134:24-32). Parameters were graded on a scale ranging from 0 to 3, (0=absence, 1=mild, 2=moderate, and 3=severe symptoms), each animal receiving a total clinical score ranging from 0 to 9. The data were expressed as mean±SEM with at least four mice per treatment.

Balb/C mice [2] = assay: Skin atrophy after 8-day topical treatment of dorsal skin; format: in vivo, mouse; conditions: for epidermal thickness: morphometric analysis; for transcription of the REDD1 gene in dorsal skin: topical 8 days, 1 nmole/cm^2, 'but not' = not increased
From the text: To investigate whether, similarly to Dex, a topical administration of CpdX could result in a skin atrophy, Balb/C mice were shaved on the dorsal skin. Ethanol (vehicle), Dex, CpdX or either one of its two enantiomers CpdX(eA) or CpdX(eB), as well as the deuterated form CpdX-D3 or either one of its two enantiomers CpdX-D3(eA) or CpdX-D3(eB), were topically applied onto the dorsal skin for 8 days.
Upon completion of the treatments, RNA transcripts were extracted from dorsal skin samples and the transcripts of Kindlin-1 and REDD1 genes were analyzed by q-RT-PCR. Histological and morphometric analyses of the dorsal skin were also performed.

B6 male mice [3] = assay: Corticosterone synthesis and adrenal gland after three-month treatment; format: in vivo, mouse; conditions: for plasmatic corticosterone level: at 10 a.m., compared to control mice (Vehicle); for cortex layers, most notably the fasciculata zone, of the adrenal glands / glomerulosa zone of the adrenal cortex / transcripts of Cyp11a, Cyp11b1 and HSD3β genes in adrenal glands: three months; for cortex layers, most notably the fasciculata zone, of the adrenal glands / glomerulosa zone of the adrenal cortex: histology; for glomerulosa zone of the adrenal cortex: 'but not' = not decreased; for transcripts of Cyp11a, Cyp11b1 and HSD3β genes in adrenal glands: q-RT-PCR
Procedure: B6 male mice (8-week-old) were daily subjected for three months to either a subcutaneous injection of vehicle (NaCl 0.9%), Dex, CpdX, CpdX(eA), CpdX(eB), CpdX-D3, CpdX-D3(eA) or CpdX-D3(eB) (1 mg/kg body weight, diluted in vehicle).
Following this long-term treatment, blood was collected at 10 a.m. and 6 p.m. by retro-orbital puncture in lithium-heparin coated vials, and the plasmatic level of corticosterone was determined. Adrenal glands were harvested and weighted. RNA transcripts were extracted and transcripts of the Cyp11a, Cyp11b1, Cyp11b2 and HSD3β genes were analyzed by q-RT-PCR. Histological analyses of the adrenal glands were also carried out.

B6 male mice [4] = assay: Blood glucose and intraperitoneal glucose tolerance test after three-month treatment; format: in vivo, mouse; conditions: for control of the blood glucose level: three months, conclusion; for blood glucose level in intraperitoneal glucose tolerance test (IPGTT): two-hour period after glucose i.p. injection (2 mg/kg body weight)
Procedure: B6 male mice (8-week-old) were daily subjected for three months to a subcutaneous injection of either vehicle (NaCl 0.9%), Dex, CpdX, CpdX(eA), CpdX(eB), CpdX-D3, CpdX-D3(eA) or CpdX-D3(eB) (1 mg/kg body weight, diluted in vehicle). Mice were over-night-fasted. Mouse blood glucose concentration was measured before (T0) and during two hours (T120) after glucose i.p. injection ([…] body weight).

mice = assay: House dust mite (HDM)-induced asthma-like allergic lung inflammation; format: in vivo, mouse; conditions: for total number of BAL cells, eosinophils and lymphocytes: 0.5 mg/kg on D29-D31, BAL on D32, vs control group; for peribronchiolar and perivascular inflammatory cell infiltration: histology of lung paraffin sections; for expressions of IL-1β, IL-6, IL-4, IL-5, IL-13, Eotaxin and CCL4 (pro-inflammatory genes) in lung samples / HDM-induced airway hyperresponsiveness (AHR), airway resistance and elastance: D32; for HDM-induced airway hyperresponsiveness (AHR), airway resistance and elastance: response to methacholine 50 mg/mL
Procedure: Glucocorticoids have been (Pearlman et al., 1997. Ann Allergy Asthma Immunol. 78(4):356-62), and are still, widely used in asthma therapy. In order to investigate the possible CpdX anti-inflammatory activity in vivo, mice were sensitized and challenged with either ovalbumin (OVA) or house dust mite (HDM) to induce an asthma-like allergic lung inflammation.
Mice were intranasally sensitized with 1 μg HDM from DO to D4, and further intranasally sensitized with 10 μg HDM on D14 and D21. Mice were then subdivided into eight groups, and on D29, D30 and D31, each mouse was again intranasally challenged with 1 μg HDM. The first seven groups received respectively 0.5 mg/kg of body weight of Dex, CpdX, CpdX(eA), CpdX(eB), CpdX-D3, CpdX-D3(eA) or CpdX-D3(eB), while the eighth group served as a control.
On D32, the airway responsiveness was invasively determined using a computer-controlled small animal ventilator (FlexVent® system, SCIREQ Technologies). Mice were anesthetized with xylazine (15 mg/kg, i.p.), followed 15 minutes later by an i.p. injection of pentobarbital sodium (54 mg/kg). An 18-gauge metal needle was then inserted into the trachea, each mouse was connected to the FlexVent® ventilator and quasi-sinusoidally ventilated with a tidal volume of 10 mL/kg at a frequency of 150 breaths/minute and a positive end-expiratory pressure of 2 cm H2O, in order to achieve a mean lung volume close to spontaneous breathing. After baseline measurement, mice were challenged for 10 seconds with a saline aerosol and, at 4.5-minute intervals, with 50 mg/mL methacholine. Airway resistance and elastance were expressed as cmH20·s/mL and cmH2O/mL respectively.
The lung allergic inflammation was assessed by examination of the bronchoalveolar lavage (BAL) fluid from each of these HDM-challenged mice. The total BAL cells, eosinophils, neutrophils, macrophages and lymphocytes were counted. RNA transcripts were extracted from lung samples. RNA transcripts of IL-1β, IL-6, IL-4, IL-5, IL-13, Eotaxin, CCL4, IL-10 and TNFα were analyzed by q-RT-PCR. Lung tissues were harvested and histological (with H&E staining) and immunohistochemical analyses were also carried out (with eosinophil-specific and neutrophil-specific antibodies).

Balb/C mouse ears = assay: Aldara-induced psoriasis-like skin inflammation; format: in vivo
Procedure: Balb/C mouse ears were topically treated with Aldara® to induce a psoriasis-like skin inflammation (Vinter et al., 2015. Br J Dermatol. 172(2):345-53). Mice were treated for 9 days with Aldara®, including a co-topical treatment for the last 5 days with either ethanol (Vehicle), Dex, CpdX or CpdX-D3.
At D10, RNA transcripts were extracted from mouse ears and IL-17a, IL-17c, IL-17f and IL-22 transcripts were analyzed by q-RT-PCR. Ear skin samples were also harvested for histological analyses (with H&E staining).

Compound | clinical signs of allergic conjunctivitis (conjunctival hyperemia, lid edema and tearing) (Balb/C mice [1]) | epidermal thickness (Balb/C mice [2]; eight-day topical treatment) | transcription of the REDD1 gene in dorsal skin (Balb/C mice [2]) | plasmatic corticosterone level (B6 male mice [3]) | cortex layers, most notably the fasciculata zone, of the adrenal glands (B6 male mice [3]) | glomerulosa zone of the adrenal cortex (B6 male mice [3]) | transcripts of Cyp11a, Cyp11b1 and HSD3β genes in adrenal glands (B6 male mice [3]) | control of the blood glucose level (B6 male mice [4]) | blood glucose level in intraperitoneal glucose tolerance test (IPGTT) (B6 male mice [4]) | total number of BAL cells, eosinophils and lymphocytes (mice) | peribronchiolar and perivascular inflammatory cell infiltration (mice) | expressions of IL-1β, IL-6, IL-4, IL-5, IL-13, Eotaxin and CCL4 (pro-inflammatory genes) in lung samples (mice; q-RT-PCR) | HDM-induced airway hyperresponsiveness (AHR), airway resistance and elastance (mice) | other results
COc1ccc(F)cc1C(C)(C)CC(O)(CNc1ccc2c(c1)COC2=O)C(F)(F)F (single isomer, unassigned) [CpdX(eB), 5-[4-(5-fluoro-2-methoxyphenyl)-2-hydroxy-4-methyl-2-(trifluoromethyl)pentylamino]-isobenzofuran-1(3H)-one] | considerably reduced | not significantly decreased | but not | much higher | markedly increased | but not | increased | does not significantly affect | no significant difference | – | – | – | – | –
[2H]C([2H])([2H])Oc1ccc(F)cc1C(C)(C)CC(O)(CNc1ccc2c(c1)COC2=O)C(F)(F)F (stereo not shown) [CpdX-D3(eA), 5-{4-[2-(methoxy-D3)-5-fluorophenyl]-2-hydroxy-4-methyl-2-(trifluoromethyl)pentylamino}isobenzofuran-1(3H)-one] | considerably reduced | not significantly decreased | but not | much higher | markedly increased | but not | increased | does not significantly affect | no significant difference | efficiently decreased | decreased | efficiently decreased | – | –
[2H]C([2H])([2H])Oc1ccc(F)cc1C(C)(C)CC(O)(CNc1ccc2c(c1)COC2=O)C(F)(F)F (stereo not shown) [CpdX-D3(eB), 5-{4-[2-(methoxy-D3)-5-fluorophenyl]-2-hydroxy-4-methyl-2-(trifluoromethyl)pentylamino}isobenzofuran-1(3H)-one] | considerably reduced | not significantly decreased | but not | much higher | markedly increased | but not | increased | does not significantly affect | no significant difference | – | – | – | – | –
[2H]C([2H])([2H])Oc1ccc(F)cc1C(C)(C)CC(O)(CNc1ccc2c(c1)COC2=O)C(F)(F)F (racemic) [CpdX-D3, 5-{4-[2-(methoxy-D3)-5-fluorophenyl]-2-hydroxy-4-methyl-2-(trifluoro-methyl)pentylamino}isobenzofuran-1(3H)-one] | considerably reduced | not significantly decreased | but not | much higher | markedly increased | but not | increased | does not significantly affect | no significant difference | significantly decreased | strongly decreased | significantly and similarly decreased | similarly reduced | number of neutrophils and macrophages in BAL (mice; 0.5 mg/kg on D29-D31, BAL on D32): No significant change; eosinophils in lung, immunohistochemistry (mice; eosinophil-specific antibodies, data not shown): decreased; neutrophils in lung, immunohistochemistry (mice; neutrophil-specific antibody, data not shown): no significant change; expressions of IL-10 and TNFα in lung samples (mice; q-RT-PCR, data not shown): not affected; induced expression of the Th17 cytokines IL-17a, IL-17c, IL-17f and IL-22 (Balb/C mouse ears; ear extracts, q-RT-PCR, D10): similarly reduced; Aldara-induced psoriasis-like skin inflammation, H&E histology (Balb/C mouse ears; mouse, in vivo): could reduce; Aldara-induced psoriasis-like skin inflammation (Balb/C mouse ears; topical co-treatment for the last 5 days, 1 nmole/cm^2): significantly decreased; skin atrophy, histological analysis (Balb/C mice [2]; eight-day topical treatment, 'in marked contrast' = no severe atrophy as with Dex): in marked contrast
COc1ccc(F)cc1C(C)(C)CC(O)(CNc1ccc2c(c1)COC2=O)C(F)(F)F (single isomer, unassigned) [CpdX(eA), 5-[4-(5-fluoro-2-methoxyphenyl)-2-hydroxy-4-methyl-2-(trifluoromethyl)pentylamino]-isobenzofuran-1(3H)-one] | considerably reduced | not significantly decreased | but not | much higher | markedly increased | but not | increased | does not significantly affect | no significant difference | efficiently decreased | decreased | efficiently decreased | reduced | –
